Assay results from patent US20170281650A1 (priority 2014, published 2017).
“Also recorded” adds a separate entry of the source. Like-named read-outs stand apart in the source and are kept apart here.

Experiments:
Golden Syrian hamsters [1] = assay: Analysis of plasma lipoproteins (TC, HDL, non-HDL cholesterol, TG) in hamster hyperlipidemia model; assay type: in vivo; conditions: for plasma TC compared with the HCD group / plasma TG compared with the HCD group / plasma non-HDL-C compared with the HCD group: end of week 6; for dose dependence of the cholesterol-lowering effect: 0.2% versus 0.3% in diet
Protocol: (§1) Six different experimental diets were prepared by mixing the ingredients according to Table 1 and blending these mixtures with a gelatin solution (20 g/L) in a ratio of 200 g composition per liter of solution. Once the gelatin had set, the product were cut into pieces of approximately 10 g cubes and stored frozen at −80° C. until use.
(§2) 46 male Golden Syrian hamsters (n=46; body weights=110-120 g) were housed in wire-bottomed cages at 23° C. in an animal room with 12-hour light-dark cycle (one per cage). All hamsters were maintained on a standard cereal based diet for two weeks.
(§3) After this acclimation period the hamsters were randomly divided into six test groups and fed one of the experimental diets for another six weeks.
Plasma total cholesterol (TC) and triacylglycerols (TG) were quantified using commercial enzymatic kits from Infinity (Waltham, Mass., U.S.A) and Stanbio Laboratories (Boerne, Tex., U.S.A.), respectively. To determine high-density lipoprotein cholesterol (HDL), low-density lipoprotein cholesterol (LDL) and very low-density lipoprotein cholesterol (VLDL) were first precipitated with a commercial kit (Stanbio) containing phosphotungstic acid and magnesium chloride. HDL cholesterol in supernatant phase was measured similarly as done for TC. Non-HDL cholesterol was calculated by deducing HDL cholesterol from TC.

Golden Syrian hamsters [2] = assay type: in vivo; conditions: 6 weeks
LDL receptor [3] = assay: mRNA of hepatic LDL receptor; assay type: in vivo, Golden Syrian hamsters; conditions: liver, 6 weeks
[4] = Food intake, body and organ weight in hamster hyperlipidemia model; assay type: in vivo, Golden Syrian hamsters; conditions: 6 weeks
Protocol: as §1, §2, §3

Golden Syrian hamsters [5] = assay: Analysis of liver cholesterol and dihydrocholesterol in hamster hyperlipidemia model; assay type: in vivo; conditions: 6 weeks
Protocol: as §1, §3
Cholesterol content in organs was determined by a standard method. Cholesterol in the tissue sample was calculated according to the amount of internal standard 5α-cholestanol added.

Golden Syrian hamsters [6] = assay: Analysis of fecal neutral and acidic sterols in hamster hyperlipidemia model; assay type: in vivo; conditions: for increase in excretion of cholesterol and its microbial derivatives compared with the HCD control: feces
Protocol: as §1, §3
Neutral and acidic sterols in the feces were quantified by a standard method using gas chromatography (GC). In brief, the total fecal sample (300 mg) from each hamster was freeze-dried, ground and well mixed. 0.3 mg of 5α-cholestanol was added as an internal standard for quantification of neutral sterols by GC analysis. The remaining aqueous layer was saved for the analysis of acidic sterols.

[7] = tested on: liver X receptor alpha (LXRα); assay: Immunoblot of hepatic LXRα protein mass; assay type: in vivo, Golden Syrian hamsters; conditions: western blot, 6 weeks
LDL receptor [8] = assay: Immunoblot of hepatic LDL receptor protein mass; assay type: in vivo, Golden Syrian hamsters; conditions: liver, western blot; 0.3% in high cholesterol diet, 6 weeks
[9] = 0.2% in high cholesterol diet, week 6
[10] = 0.3% in high cholesterol diet, week 6

Row | Compound | plasma TC compared with the HCD group (Golden Syrian hamsters [1]; 0.2% in high cholesterol diet) | plasma TG compared with the HCD group (Golden Syrian hamsters [1]; 0.2% in high cholesterol diet) | plasma non-HDL-C compared with the HCD group (Golden Syrian hamsters [1]; 0.2% in high cholesterol diet) | dose dependence of the cholesterol-lowering effect (Golden Syrian hamsters [1]) | plasma TC compared with the HCD group (Golden Syrian hamsters [1]; 0.3% in high cholesterol diet) | plasma TG compared with the HCD group (Golden Syrian hamsters [1]; 0.3% in high cholesterol diet) | plasma non-HDL-C compared with the HCD group (Golden Syrian hamsters [1]; 0.3% in high cholesterol diet) | atherosclerotic plague compared with the HCD control group (Golden Syrian hamsters [2]; 0.2% in high cholesterol diet) | atherosclerotic plague compared with the HCD control group (Golden Syrian hamsters [2]; 0.3% in high cholesterol diet) | mRNA level of the LDL receptor compared with the HCD control (LDL receptor [3]; 0.2% in high cholesterol diet) | mRNA level of the LDL receptor compared with the HCD control (LDL receptor [3]; 0.3% in high cholesterol diet) | epididymal fat pad weight compared with the control ([4]; 0.2% in high cholesterol diet) | kidney weight compared with HCD ([4]; 0.2% in high cholesterol diet) | liver weight compared with the HCD group ([4]; 0.2% in high cholesterol diet) | kidney weight compared with HCD ([4]; 0.3% in high cholesterol diet) | liver weight compared with the HCD group ([4]; 0.3% in high cholesterol diet) | Body Weight Final ([4]; 0.2% in high cholesterol diet) [g] | Body Weight Final ([4]; 0.3% in high cholesterol diet) [g] | decrease in liver cholesterol (Golden Syrian hamsters [5]; 0.2% in high cholesterol diet) [%] | hepatic cholesterol levels compared with the HCD control (Golden Syrian hamsters [5]; 0.2% in high cholesterol diet) | further results
1 | CC(C)CCC[C@@H](C)[C@H]1CC[C@H]2[C@@H]3CC[C@H]4C[C@@H](O)CC[C@]4(C)[C@H]3CC[C@]12C [DHC, dihydrocholesterol] | significantly lower; also recorded: significantly reduces | significantly lower; also recorded: significantly reduces | significantly lower | not dose-dependent | significantly lower; also recorded: significantly reduces | significantly lower; also recorded: significantly reduces | significantly lower | significantly lesser | significantly lesser | up-regulated | up-regulated | decreased | no significant difference | decreased | reduced | decreased | 115.38 ± 9.02 | 115.43 ± 7.00 | 67.5 | significantly lower | reducing serum TG, compared with β-sitosterol (Golden Syrian hamsters [1]; 0.2% and 0.3% diets): more effective than β-sitosterol; DHC accumulated in the liver (Golden Syrian hamsters [5]; 0.2% DHC in high cholesterol diet (DA)): about 2 mg DHC/g liver; reducing the liver cholesterol, compared with SA and SB (β-sitosterol) (Golden Syrian hamsters [5]; 0.2% and 0.3% diets): more effective; DHC accumulated in the liver (Golden Syrian hamsters [5]; 0.3% DHC in high cholesterol diet (DB)): about 2 mg DHC/g liver; decrease in liver cholesterol (Golden Syrian hamsters [5]; 0.3% in high cholesterol diet): 71.5%; hepatic cholesterol levels compared with the HCD control (Golden Syrian hamsters [5]; 0.3% in high cholesterol diet): significantly lower; excretion of total neutral sterols compared with corresponding SA and SB (β-sitosterol) groups (Golden Syrian hamsters [6]; 0.2% and 0.3% diets, week 6): greater; total fecal neutral sterols excreted compared with the controls (Golden Syrian hamsters [6]; [9]): greater; total fecal neutral sterols excreted compared with the controls (Golden Syrian hamsters [6]; [10]): greater; increase in excretion of cholesterol and its microbial derivatives compared with the HCD control (Golden Syrian hamsters [6]; 0.2% in high cholesterol diet): 11.5 fold; increase in excretion of cholesterol and its microbial derivatives compared with the HCD control (Golden Syrian hamsters [6]; 0.3% in high cholesterol diet): 19.1 fold; LXRα protein mass ([7]; 0.2% in high cholesterol diet): up-regulated LXRα slightly; LXRα protein mass ([7]; 0.3% in high cholesterol diet): up-regulated LXRα slightly
2 | CC[C@H](CC[C@@H](C)[C@H]1CC[C@H]2[C@@H]3CC=C4C[C@@H](O)CC[C@]4(C)[C@H]3CC[C@]12C)C(C)C [β-sitosterol, reference compound] | significantly lower | significantly lower | significantly lower | dose-dependent | significantly lower | significantly lower | significantly lower | significantly lesser | significantly lesser | up-regulated | up-regulated | decreased | reduced | decreased | no significant difference | decreased | 118.43 ± 13.74 | 112.00 ± 8.05 | 30.5 | significantly lower | reducing plasma TC, compared with DHC (Golden Syrian hamsters [1]; [10]): more effective than DHC; reducing the formation of atherosclerotic plague, compared with DA and DB (DHC) diets (Golden Syrian hamsters [2]; 0.2% and 0.3% diets): more effective; epididymal fat pad weight compared with the control ([4]; 0.3% in high cholesterol diet): decreased; decrease in liver cholesterol (Golden Syrian hamsters [5]; 0.3% in high cholesterol diet): 38.4%; hepatic cholesterol levels compared with the HCD control (Golden Syrian hamsters [5]; 0.3% in high cholesterol diet): significantly lower; excretion of acidic sterols compared with corresponding DA and DB (DHC) groups (Golden Syrian hamsters [6]; 0.2% and 0.3% diets, week 6): greater; total fecal neutral sterols excreted compared with the controls (Golden Syrian hamsters [6]; [9]): greater; total fecal neutral sterols excreted compared with the controls (Golden Syrian hamsters [6]; [10]): greater; LXRα protein mass ([7]; 0.2% in high cholesterol diet): significantly up-regulated; LXRα protein mass ([7]; 0.3% in high cholesterol diet): significantly up-regulated; LDL receptor protein (LDL receptor [8]): significantly up-regulated
